Laboratory results from patent US20060009425A1, “Oral formulations of paricalcitol” (priority 2004, published 2006).

Tests used:
[1] = Bioavailability of capsule vs intravenous formulation, end-stage renal disease on hemodialysis (Example 3); format: in vivo; details: human, plasma
Experimental: Methodology: This was a Phase I, open-label, randomized, single-dose, two-period, crossover, nonfasting study. Subjects were randomized into two sequence groups of Regimens A and B. The two nonfasting study regimens were:
The intravenous formulation contained 2-10 micrograms/milliliter of paricalcitol, 30% (v/v) propylene glycol, 20% (v/v) ethanol and 50% (v/v) water.
Both regimens were administered at the end of a regular hemodialysis session on Study Day 1, 30 minutes after a breakfast was served. […] Fourteen subjects participated in the study. […] A washout interval of at least 7 days separated the doses of the two study periods. […] Plasma concentrations of paricalcitol were determined using a validated liquid chromatography—tandem mass spectrometric assay method at Abbott Laboratories, Abbott Park, Ill. […] The lower limit of quantification of paricalcitol was 0.02 ng/mL using a 0.6 mL plasma sample.
Pharmacokinetics: The pharmacokinetic parameter values of paricalcitol were estimated using noncompartmental methods. […] The volume of distribution for intravenous administration (Vdβ) and apparent volume of distribution for oral administration (Vdβ/F) value were calculated by dividing the clearance by β. […]

[2] = Phase 3 TIW study, safety (Example 6)
Experimental: (§3) Additionally, safety was assessed by the incidence of adverse events, the change from baseline in chemistry, hematology and urinalysis laboratory variables, the change from baseline in subject vital signs, and progressive changes in renal function observed via changes in eGFR.
(§4) All randomized subjects who received at least 1 dose of study drug were used in safety analyses. […] This comparison was performed using a Fisher's exact test. Secondary safety analyses were performed comparing changes/percent changes from baseline between the paricalcitol and placebo treatment groups using a one-way ANOVA with treatment group as the factor for the following variables: hematology, complete chemistry, and urinalysis variables; 24-hour urine collections, eGFR, urinary calcium/creatinine ratio, cardiovascular markers, and vital signs. Secondary safety analyses also consisted of an analysis of “treatment-emergent” adverse events (i.e., adverse events with an onset date on or after the date the first dose of study drug was taken). Adverse events were summarized by body system and COSTART term according to the COSTART V adverse event-coding dictionary. Comparisons of the percentage of subjects experiencing an adverse event between the paricalcitol and placebo treatment groups were performed using a Fisher's exact test.

[3] = tested on: biochemical bone activity markers; experiment: Phase 3 TIW study, biochemical bone activity markers (Table C); format: in vivo, human; details: CKD Stage 3 and 4, TIW treated subjects (Table C)
Source text: Serum bone-specific alkaline phosphate and serum osteocalcin are considered more sensitive bone markers to evaluate degree of bone remodeling than urinary bone marker. […] These subjects received treatment with the oral formulations of the present invention or a placebo. The bone markers examined in these subjects were serum osteocalcin, serum bone-specific alkaline phosphatase, urinary pyridinoline, and deoxypyridinoline. If more than 1 biochemical bone activity marker measurement existed for a subject on a particular day, the higher measurement was considered to be that subject's biochemical bone activity marker measurement for that day. […] The Final Visit measurement was defined as the last biochemical bone activity marker measurement following the first dose of study drug.
(§1) The Week 11 Visit measurement was defined as the biochemical bone activity marker measurement on the day closest to the Week 11 scheduled visit, for which the possible measurements to choose from were those collected within 64 and 77 days following the first dose of study drug.
(§2) Changes from baseline to Week 11 Visit and to Final Visit in biochemical bone activity markers were compared between oral paricalcitol and placebo using an ANOVA with treatment as the factor on the combined Phase 3 all treated subject population (Table F). Also, the changes from baseline to Week 11 Visit and to Final Visit were compared between oral paricalcitol and placebo using an ANCOVA with baseline as the second factor on the combined Phase 3 all treated subject population (Table G).
The study was performed in 4 parts: a Screening Visit, a Pre-Treatment Phase, a Treatment Phase, and a Follow-Up Phase. At the Screening Visit, subjects reviewed and signed the informed consent form prior to the conduct of any study-specific screening procedures. A spot urine sample was used to calculate calcium/creatinine ratio. A blood sample was drawn for iPTH, blood urea nitrogen (BUN), albumin and serum creatinine levels. […] The serum creatinine, BUN, and albumin values were used to calculate the subject's estimated glomerular filtration rate (eGFR) using a formula derived from the “Modification of Diet in Renal Disease” (MDRD) study. Subjects with a calculated eGFR of 15 to 60 mL/min were eligible to undergo Pre-Treatment Phase procedures. The Pre-Treatment Phase was 1 to 4 weeks. During this phase, subjects had 2 scheduled office visits. The office visits could have occurred at any time over a 4-week period but must have been at least 1 day apart. During these visits, subjects were to meet laboratory criteria regarding serum iPTH, calcium, and phosphorus levels. If the subject was unable to meet these criteria, he or she may have been re-screened once after 4 weeks. […] Subjects who satisfied inclusion and exclusion criteria after a minimum of 1 week in the Pre-Treatment Phase were eligible to enter the Treatment Phase. During the Treatment Phase, subjects were to self-administer study drug 3 times weekly, on Monday, Wednesday and Friday, for a total of 24 weeks. The initial dose was 2 or 4 mcg (depending on baseline iPTH levels). Procedures to be performed during the Treatment Phase included vital signs, chemistry and hematology, urinary pyridinoline, urinary deoxypyridinoline, serum bone-specific alkaline phosphatase, serum osteocalcin, urinalysis, spot urine for calcium/creatinine ratio, and recording of adverse events and concurrent medications. Serum iPTH, calcium, phosphorus, and albumin were measured every 2 weeks. Dose adjustments were to be made according to these chemistry results for iPTH, calcium, and phosphorus. Doses may have been increased in 2 mcg increments every 4 weeks. Dose reductions were to occur according to a protocol-specified algorithm. However, dosing could have been adjusted any time if, in the judgment of the Investigator, a risk to subject safety existed.

[4] = human, in vivo, 24 weeks
Experimental: as §3, §4

[5] = tested on: biochemical bone activity markers; experiment: Phase 3 TIW study, biochemical bone activity markers (Table D); format: in vivo, human; details: CKD Stage 3 and 4, TIW treated subjects (Table D)
Experimental: Serum bone-specific alkaline phosphate and serum osteocalcin are considered more sensitive bone markers to evaluate degree of bone remodeling than urinary bone marker. […] As shown in Examples 5-7 and Tables C (Example 5), Table D (Example 6) and Table E (Example 7), certain biochemical bone activity marker variables were analyzed in CKD Stage 3 and 4 subjects. These subjects received treatment with the oral formulations of the present invention or a placebo. The bone markers examined in these subjects were serum osteocalcin, serum bone-specific alkaline phosphatase, urinary pyridinoline, and deoxypyridinoline. If more than 1 biochemical bone activity marker measurement existed for a subject on a particular day, the higher measurement was considered to be that subject's biochemical bone activity marker measurement for that day. […] The Final Visit measurement was defined as the last biochemical bone activity marker measurement following the first dose of study drug.
as §1, §2
During the Treatment Phase, subjects were to self-administer study drug 3 times weekly, on Monday, Wednesday and Friday, for a total of 24 weeks. The initial dose was 2 or 4 mcg (depending on baseline iPTH levels). Procedures to be performed during the Treatment Phase included vital signs, chemistry and hematology, urinary pyridinoline, urinary deoxypyridinoline, serum bone-specific alkaline phosphatase, serum osteocalcin, urinalysis, spot urine for calcium/creatinine ratio, and recording of adverse events and concurrent medications. Serum iPTH, calcium, phosphorus, and albumin were measured every 2 weeks. Dose adjustments were to be made according to these chemistry results for iPTH, calcium, and phosphorus. Doses may have been increased in 2 mcg increments every 4 weeks.

Compound: C[C@H](/C=C/[C@H](C)C(C)(C)O)[C@H]1CC[C@H]2/C(=C/C=C3C[C@@H](O)C[C@H](O)C3)CCC[C@]12C [Paricalcitol, 19-nor-1α,3β,25-trihydroxy-9,10-secoergosta-5(Z); 7(E),22(E)-triene]
- half-life ([1]; 0.24 ug/kg, 0.24 μg/kg single dose, hemodialysis, harmonic mean ± pseudo-standard deviation): ~14 h
- bioavailability ([1]; 0.24 μg/kg, single oral dose, nonfasting, end-stage renal disease on hemodialysis, read-out: estimated absolute bioavailability): 78.8%
- safety and tolerability ([2]; CKD (Stages 3 and 4) subjects): safe and well tolerated
- adverse events considered not related to study drug administration ([2]; TIW, 24 weeks): 85%
- adverse events mild or moderate in severity ([2]; TIW, 24 weeks): 88%
- subjects with treatment-emergent adverse events ([2]; TIW, 24 weeks): 79%
- subjects reporting serious adverse events ([2]; Treatment and Follow-Up Phases): 9 subjects
- deaths ([2]; cardiopulmonary arrest, considered not related to study drug): 1 subject
- adverse event incidence: constipation ([2]; in vivo): 8%
- adverse event incidence: depression ([2]; in vivo): 8%
- adverse event incidence: headache ([2]; in vivo): 8%
- adverse event incidence: hypertension ([2]; in vivo): 8%
- adverse event incidence: infection ([2]; in vivo): 8%
- adverse event incidence: pain ([2]; in vivo): 10%
- adverse event incidence: pharyngitis ([2]; in vivo): 10%
- adverse event incidence: rhinitis ([2]; in vivo): 8%
- adverse event incidence: vertigo ([2]; in vivo): 8%
- subjects terminated prematurely due to adverse events ([2]; in vivo): 1 subjects
- subjects who developed clinically meaningful hypercalcemia (at least 2 consecutive calcium values >10.5 mg/dL) ([2]; in vivo): 1/38
- Serum Bone-Specific Alkaline Phosphatase, Change from Baseline (SE) to Final [3]: −7.922 (1.3520) mcg/L
- Serum Bone-Specific Alkaline Phosphatase, Change from Baseline (SE) to Week 11 [3]: −4.673 (1.2590) mcg/L
- Serum Osteocalcin, Change from Baseline (SE) to Final [3]: −19.00 (4.381) ng/mL
- Serum Osteocalcin, Change from Baseline (SE) to Week 11 [3]: −4.23 (4.386) ng/mL
- Urinary Deoxypyridinoline, Change from Baseline (SE) to Final [3]: −0.0084 (0.00375) nmol/mg Creat
- Urinary Deoxypyridinoline, Change from Baseline (SE) to Week 11 [3]: −0.0116 (0.00354) nmol/mg Creat
- Urinary Pyridinoline, Change from Baseline (SE) to Final [3]: −4.06 (2.276) nmol/mmol Creat
- Urinary Pyridinoline, Change from Baseline (SE) to Week 11 [3]: −5.46 (2.545) nmol/mmol Creat
- adverse event incidence: viral infection [4]: 10%
- Serum Bone-Specific Alkaline Phosphatase, Change from Baseline (SE) to Final [5]: −8.179 (1.2010) mcg/L
- Serum Bone-Specific Alkaline Phosphatase, Change from Baseline (SE) to Week 11 [5]: −5.078 (0.9420) mcg/L
- Serum Osteocalcin, Change from Baseline (SE) to Final [5]: −18.92 (3.973) ng/mL
- Serum Osteocalcin, Change from Baseline (SE) to Week 11 [5]: −6.96 (3.259) ng/mL
- Urinary Deoxypyridinoline, Change from Baseline (SE) to Final [5]: −0.0182 (0.0062) nmol/mg Creat
- Urinary Deoxypyridinoline, Change from Baseline (SE) to Week 11 [5]: −0.0144 (0.00813) nmol/mg Creat
- Urinary Pyridinoline, Change from Baseline (SE) to Final [5]: −7.11 (2.828) nmol/mmol Creat
- Urinary Pyridinoline, Change from Baseline (SE) to Week 11 [5]: −4.87 (3.725) nmol/mmol Creat
